Among the data in PubChem BioAssay (NCI) are GI50 and TGI values, retold here.

Each structure is given as a SMILES string.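 Where inhibition never reached the appropriate level, the endpoint shown equals the highest concentration tested. Otherwise, values were interpolated linearly from a five-concentration, 48-hour dose response in 96-well plates. GI50 marks 50% less growth. TGI denotes the concentration required for complete inhibition of growth.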

Holding throughout (assay): NCI tumour cell line growth inhibition, 48 h
For test [1], the system named is CCRF-CEM leukemia.
Test [2] concerns HT29 colon.
For test [3], the system named is K-562 leukemia.
Test [4] concerns MDA-MB-231 breast.
Test [5] relates to SK-MEL-2 melanoma.
Test [6] relates to SN12C renal.
Test [7] concerns SNB-19 CNS.
Test [8] deals with TK-10 renal.
For test [9], the system named is U251 CNS.
For test [10], the system named is UACC-62 melanoma.

As for `N#CSc1c[nH]c2ccc(/C=C/C(=O)/C=C(/C=C/c3ccc4[nH]cc(SC#N)c4c3)OB(F)F)cc12`, the GI50 in test [1] is 0.267 µM; in test [2], 0.394 µM; in [3], 0.281 µM; in test [4], 0.917 µM; in test [5], 2.92 µM; in test [6] it was 0.442 µM. In addition, the GI50 in test [7] is 3.32 µM; in test [8], 0.698 µM; in test [9] it was 1.04 µM; in test [10], 1.2 µM. For the same compound, the TGI in test [1] is 4.4 µM; in [2], 2.38 µM; in [3] it was over 100 µM; in test [4] it was 2.34 µM; in test [5] it was 8.04 µM; in test [6], 3.13 µM. For the same compound, the TGI was determined as 14.7 µM in [7], 14.8 µM in test [8], 2.99 µM in test [9] and 2.85 µM in [10].

Consider `CC(=O)N1c2ccccc2NC2=C(C(=O)N(Cc3ccccc3)C2(C)C)C1c1ccco1` (stereo not given), for which the GI50 is 0.258 µM in [1]; 0.755 µM in test [2]; 0.166 µM in test [3]; 0.364 µM in test [4]; 1.03 µM in test [5]; 0.589 µM in test [6]. Moreover, the GI50 is 0.524 µM in test [7], 6.14 µM in test [8], 0.665 µM in test [9] and 0.373 µM in [10]. Moreover, the TGI in test [1] is over 25 µM; in test [2], over 25 µM; in [3] it was over 25 µM; in test [4], over 11.3 µM; in [5] it was over 25 µM; in [6], over 25 µM. The TGI in test [7], in test [8], in test [9] and in test [10] was over 25 µM throughout.

Turning to `O=C(O)c1ccc(S(=O)(=O)Nc2ccc3oc4c(c3c2)C(=O)CCC4)cc1`, the GI50 in test [1], in test [2], in [3], in test [4], in [5] and in test [6] was over 100 µM in each case. Further, the GI50 in test [7], in [8], in test [9] and in test [10] was over 100 µM in each case. The TGI in test [1], in [2], in [3], in test [4], in test [5] and in [6] was over 100 µM in each case. Besides, the TGI in [7], in test [8], in test [9] and in test [10] was over 100 µM in each case.

Take `C[C@@H](CN1CC(=O)NC(=O)C1)N1CC(=O)NC(=O)C1`: the TGI stood at 1840 µM in test [1]; 950 µM in test [2]; 2500 µM in test [3]; 679 µM in test [4]; 754 µM in [5]; 906 µM in test [6]. In addition, the TGI in [7] came out at 1370 µM; in [8], 1110 µM; in [9], 839 µM; in [10] it was 570 µM.

Consider `COC(=O)NC1(NC(=O)OC)NC(=O)c2cc(OC)c(OC)c(OC)c2N1`, for which the TGI in test [1] is over 100 µM; in [2] it was over 100 µM; in test [3], over 100 µM; in [4], over 100 µM; in test [5] it was 8.85 µM; in test [6], over 100 µM. For the same compound, the TGI in test [7], in [8], in test [9] and in [10] was over 100 µM each time.

As to `O=C(O)CCC/C=C\C[C@H]1C=CC(=O)/C1=C/C[C@@H](O)CCc1cccc(C(F)(F)F)c1`, the GI50 in test [1] is 0.465 µM; in [2] it was 2.69 µM; in test [3], 2.24 µM; in test [4], 5.19 µM; in test [5] it was 2.65 µM; in test [6], 3.41 µM. The GI50 was 2.01 µM in [7], 4.21 µM in [8], 1.55 µM in test [9] and 2.29 µM in test [10]. Besides, the TGI is 10.8 µM in test [1]; 6.41 µM in test [2]; 10.1 µM in [3]; 21.9 µM in test [4]; 7.98 µM in [5]; 26.8 µM in test [6]. Further, the TGI in test [7] is 4.8 µM; in test [8] it was 9.82 µM; in [9], 3.45 µM; in [10] it was 6.94 µM.

For `COc1cc2c(cc1OC)C(OC)N(C)c1c-2ccc2cc3c(cc12)OCO3` (stereo not given), the TGI in test [1] stood at 13.4 µM; in test [2] it was 7.07 µM; in [3] it was 33.2 µM; in test [4], 5.16 µM; in test [5], 5.02 µM; in test [6], 21.1 µM. For the same compound, the TGI was over 75 µM in test [7], over 75 µM in test [8], 1.75 µM in test [9] and 3.08 µM in [10].

As for `CCCCCCCCCc1cc[n+](CC(=O)c2ccc([N+](=O)[O-])cc2)cc1`, the GI50 in test [1] was 1.95 µM; in test [2] it was 0.313 µM; in [3], 0.338 µM; in [4] it was 0.447 µM; in [5] it was 0.565 µM; in test [6], 0.581 µM. The GI50 in test [7] is 0.478 µM; in test [8], 1.47 µM; in test [9], 0.457 µM; in test [10], 1.23 µM. The TGI was 5.01 µM in test [1]; 1.29 µM in test [2]; 2.02 µM in test [3]; 1.7 µM in test [4]; 2.06 µM in test [5]; 1.9 µM in [6]. Besides, the TGI in test [7] came out at 1.8 µM; in test [8] it was 2.88 µM; in test [9] it was 1.76 µM; in test [10], 2.54 µM.

`Cc1cc(O)c(C2=NN(c3ccc(S(N)(=O)=O)cc3)C(c3ccc(N(C)C)cc3)C2)c(C)c1Cl` (stereo not given): the GI50 in [1] was 15.1 µM; in test [2] it was 10.9 µM; in test [3], 14 µM; in test [4], 11 µM; in [5] it was 21.4 µM; in test [6], 9.62 µM. The GI50 is 22.2 µM in test [7], 22.1 µM in test [8], 11.8 µM in test [9] and 9.92 µM in test [10]. Moreover, the TGI in [1] is 43.6 µM; in test [2] it was 25.8 µM; in test [3], 44.8 µM; in [4], 27.2 µM; in test [5], 43.6 µM; in test [6] it was 25 µM. Also, the TGI in [7] was 62.6 µM; in test [8], 42.4 µM; in test [9], 26.9 µM; in [10] it was 25.8 µM.
